Results taken from ChEMBL document CHEMBL4418300, “Uses of fahd1” (2016).

Target: T1, Oxaloacetate tautomerase FAHD1, mitochondrial (Homo sapiens, UniProt Q6P587)
T1 sequence (Q6P587 whole entry): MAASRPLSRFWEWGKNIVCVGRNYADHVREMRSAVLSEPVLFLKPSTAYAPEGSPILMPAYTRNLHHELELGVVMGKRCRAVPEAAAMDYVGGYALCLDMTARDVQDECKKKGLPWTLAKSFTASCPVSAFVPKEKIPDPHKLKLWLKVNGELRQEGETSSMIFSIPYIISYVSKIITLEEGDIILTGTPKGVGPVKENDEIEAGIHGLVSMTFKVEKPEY
Experiment: Inhibition of wild-type recombinant N-terminal His6 and S-tagged full-length human FAHD1 expressed in Escherichia coli using oxaloacetate as substrate by photometric analysis

**Q.** For O=C([O-])C(=O)[O-].[Na+].[Na+] [SODIUM OXALATE], which IC50 is on record?
**A.** Its IC50 is 20 µM.
